Experimental data as given in patent US8835462B2, “Macrocyclic picolinamides as fungicides” (Dow AgroSciences LLC, priority 2012, dated 2014).
Where two headings read alike, the source gives them in different places.

Experiments:
Assay type in all cases: in vivo
Leptosphaeria nodorum = assay: Wheat glume blotch (LEPTNO) fungicidal activity; conditions: Parastagonospora nodorum, 24 h, 1 Day Protectant, read-out: Disease Control LEPTNO 1DP
Description: Technical grades of materials were dissolved in acetone, which were then mixed with nine volumes of water containing 110 ppm Triton X-100. The fungicide solutions were applied onto wheat seedlings using an automated booth sprayer to run-off. All sprayed plants were allowed to air dry prior to further handling. Wheat plants (variety Yuma) were grown from seed in a greenhouse in 50% mineral soil/50% soil-less Metro mix until the first leaf was fully emerged, with 7-10 seedlings per pot. These plants were inoculated with an aqueous spore suspension of Septoria tritici either prior to or after fungicide treatments. After inoculation the plants were kept in 100% relative humidity (one day in a dark dew chamber followed by two to three days in a lighted dew chamber at 20° C.) to permit spores to germinate and infect the leaf. The plants were then transferred to a greenhouse set at 20° C. for disease to develop. When disease symptoms were fully expressed on the 1st leaves of untreated plants, infection levels were assessed on a scale of 0 to 100 percent disease severity. Percent disease control was calculated using the ratio of disease severity on treated plants relative to untreated plants. Evaluation of Fungicidal Activity: Wheat Glume Blotch (Leptosphaeria Nodorum; Bayer Code […]) Wheat plants (variety Yuma) were grown from seed in a greenhouse in 50% mineral soil/50% soil-less Metro mix until the first leaf was fully emerged, with 7-10 seedlings per pot. These plants were inoculated with an aqueous spore suspension of Leptosphaeria nodorum 24 hr after fungicide treatments. After inoculation the plants were kept in 100% relative humidity (one day in a dark dew chamber followed by two days in a lighted dew chamber at 20° C.) to permit spores to germinate and infect the leaf. The plants were then transferred to a greenhouse set at 20° C. for disease to develop. Fungicide formulation, application and disease assessment followed the procedures as described in the Example A.

Alternaria solani = assay: Tomato early blight (ALTESO) fungicidal activity; conditions: 24 h, 1 Day Protectant, read-out: Disease Control ALTESO 1DP
Description: Technical grades of materials were dissolved in acetone, which were then mixed with nine volumes of water containing 110 ppm Triton X-100. The fungicide solutions were applied onto wheat seedlings using an automated booth sprayer to run-off. All sprayed plants were allowed to air dry prior to further handling. Wheat plants (variety Yuma) were grown from seed in a greenhouse in 50% mineral soil/50% soil-less Metro mix until the first leaf was fully emerged, with 7-10 seedlings per pot. These plants were inoculated with an aqueous spore suspension of Septoria tritici either prior to or after fungicide treatments. After inoculation the plants were kept in 100% relative humidity (one day in a dark dew chamber followed by two to three days in a lighted dew chamber at 20° C.) to permit spores to germinate and infect the leaf. The plants were then transferred to a greenhouse set at 20° C. for disease to develop. When disease symptoms were fully expressed on the 1st leaves of untreated plants, infection levels were assessed on a scale of 0 to 100 percent disease severity. Percent disease control was calculated using the ratio of disease severity on treated plants relative to untreated plants. Evaluation of Fungicidal Activity: Tomato Early Blight (Alternaria Solani; Bayer Code […]) Tomato plants (variety Outdoor girl) were propagated in soil-less Metro mix, with each pot having one plant, and used when 12 to 14 days old. Test plants were inoculated with an aqueous spore suspension of Alternaria solani 24 hr after fungicide treatments. After inoculation the plants were kept in 100% relative humidity (one day in a dark dew chamber followed by two to three days in a lighted dew chamber at 20° C.) to permit spores to germinate and infect the leaf. The plants were then transferred to a growth room at 22° C. for disease to develop. Fungicide formulation, application and disease assessment on the sprayed leaves followed the procedures as described in the Example A.

[1] = tested on: Glomerella lagenarium; Anamorph: Colletotricum lagenarium; assay: Cucumber anthracnose (COLLLA) fungicidal activity; conditions: Colletotrichum orbiculare, 24 h, 1 Day Protectant, read-out: Disease Control COLLLA 1DP
Description: Technical grades of materials were dissolved in acetone, which were then mixed with nine volumes of water containing 110 ppm Triton X-100. The fungicide solutions were applied onto wheat seedlings using an automated booth sprayer to run-off. All sprayed plants were allowed to air dry prior to further handling. Wheat plants (variety Yuma) were grown from seed in a greenhouse in 50% mineral soil/50% soil-less Metro mix until the first leaf was fully emerged, with 7-10 seedlings per pot. These plants were inoculated with an aqueous spore suspension of Septoria tritici either prior to or after fungicide treatments. After inoculation the plants were kept in 100% relative humidity (one day in a dark dew chamber followed by two to three days in a lighted dew chamber at 20° C.) to permit spores to germinate and infect the leaf. The plants were then transferred to a greenhouse set at 20° C. for disease to develop. When disease symptoms were fully expressed on the 1st leaves of untreated plants, infection levels were assessed on a scale of 0 to 100 percent disease severity. Percent disease control was calculated using the ratio of disease severity on treated plants relative to untreated plants. Evaluation of Fungicidal Activity: Cucumber Anthracnose (Glomerella Lagenarium; Anamorph: Colletotricum Lagenarium; Bayer Code COLLLA) Cucumber seedlings (variety Bush Pickle) were propagated in soil-less Metro mix, with each pot having one plant, and used in the test when 12 to 14 days old. Test plants were inoculated with an aqueous spore suspension of Colletotricum lagenarium 24 hr after fungicide treatments. After inoculation the plants were kept in a dew room at 22° C. with 100% relative humidity for 48 hr to permit spores to germinate and infect the leaf. The plants were then transferred to a growth room set at 22° C. for disease to develop. Fungicide formulation, application and disease assessment on the sprayed leaves followed the procedures as described in the Example A.

[2] = tested on: Mycosphaerella graminicola; Anamorph: Septoria tritici; assay: Leaf blotch of wheat (SEPTTR) fungicidal activity on wheat seedlings; conditions: Zymoseptoria tritici
Procedure, shortened: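 Compounds in acetone were diluted with nine volumes of water containing 110 ppm Triton X-100 and sprayed to run-off on Yuma wheat seedlings at first-leaf stage. Septoria tritici spores were inoculated before or after treatment, followed by dew chambers at 100% RH and 20 °C, then greenhouse at 20 °C. Severity (0–100%) was scored once untreated plants were fully diseased; control was calculated relative to untreated plants.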

[3] = 24 h, 1 Day Protectant, read-out: Disease Control SEPTTR 1 DP
[4] = 72 h, 3 Day Curative, read-out: Disease Control SEPTTR 3 DC

COc1ccnc(C(=O)N[C@H]2COC[C@H](Cc3ccccc3)[C@@H](OCCCC(F)(F)F)[C@H](C)OC2=O)c1OCOC(C)=O [Compound 23]
pest or weed control at 100 ppm (Leptosphaeria nodorum): 80 to 100% | pest or weed control at 100 ppm (Alternaria solani): 80 to 100% | pest or weed control at 100 ppm [1]: 80 to 100% | pest or weed control at 100 ppm [2, 3]: 80 to 100% | pest or weed control at 100 ppm [2, 4]: 80 to 100%

CCCCCO[C@@H]1[C@@H](Cc2ccccc2)COC[C@H](NC(=O)c2nccc(OC)c2OCOC(C)=O)C(=O)O[C@H]1C [Compound 26]
pest or weed control at 100 ppm (Leptosphaeria nodorum): 80 to 100% | pest or weed control at 100 ppm (Alternaria solani): 80 to 100% | pest or weed control at 100 ppm [1]: 80 to 100% | pest or weed control at 100 ppm [2, 3]: 80 to 100% | pest or weed control at 100 ppm [2, 4]: 80 to 100%

COc1ccnc(C(=O)N[C@H]2COC[C@H](Cc3ccccc3)[C@@H](OCCCc3ccccc3)[C@H](C)OC2=O)c1OCOC(C)=O [Compound 34]
pest or weed control at 100 ppm (Leptosphaeria nodorum): 80 to 100% | pest or weed control at 100 ppm (Alternaria solani): 80 to 100% | pest or weed control at 100 ppm [1]: 80 to 100% | pest or weed control at 100 ppm [2, 3]: 80 to 100% | pest or weed control at 100 ppm [2, 4]: 80 to 100%

COC(=O)/C=C/O[C@@H]1[C@@H](Cc2ccccc2)COC[C@H](NC(=O)c2nccc(OC)c2OCOC(C)=O)C(=O)O[C@H]1C [Compound 36]
pest or weed control at 100 ppm (Leptosphaeria nodorum): 80 to 100% | pest or weed control at 100 ppm (Alternaria solani): 0 to 80% | pest or weed control at 100 ppm [1]: 80 to 100% | pest or weed control at 100 ppm [2, 3]: 80 to 100% | pest or weed control at 100 ppm [2, 4]: 80 to 100%

COc1ccnc(C(=O)N[C@H]2COC[C@H](Cc3ccccc3)[C@@H](OC(=O)c3ccccc3)[C@H](C)OC2=O)c1OCOC(C)=O [Compound 37]
pest or weed control at 100 ppm (Leptosphaeria nodorum): 80 to 100% | pest or weed control at 100 ppm (Alternaria solani): 80 to 100% | pest or weed control at 100 ppm [1]: 80 to 100% | pest or weed control at 100 ppm [2, 3]: 80 to 100% | pest or weed control at 100 ppm [2, 4]: 80 to 100%

COc1ccnc(C(=O)N[C@H]2COC[C@H](Cc3ccccc3)[C@@H](OC(=O)C3CC3)[C@H](C)OC2=O)c1OCOC(C)=O [Compound 38]
pest or weed control at 100 ppm (Leptosphaeria nodorum): 80 to 100% | pest or weed control at 100 ppm (Alternaria solani): 80 to 100% | pest or weed control at 100 ppm [1]: 80 to 100% | pest or weed control at 100 ppm [2, 3]: 80 to 100% | pest or weed control at 100 ppm [2, 4]: 80 to 100%

COc1ccnc(C(=O)N[C@H]2COC[C@H](Cc3ccccc3)[C@@H](OC)[C@H](C)OC2=O)c1OCOC(C)=O [Compound 39]
pest or weed control at 100 ppm (Leptosphaeria nodorum): 80 to 100% | pest or weed control at 100 ppm (Alternaria solani): 0 to 80% | pest or weed control at 100 ppm [1]: 80 to 100% | pest or weed control at 100 ppm [2, 3]: 80 to 100% | pest or weed control at 100 ppm [2, 4]: 80 to 100%

COc1ccnc(C(=O)N[C@H]2COC[C@H](Cc3ccccc3)[C@@H](Oc3ccccc3)[C@H](C)OC2=O)c1OCOC(C)=O [Compound 40]
pest or weed control at 100 ppm (Leptosphaeria nodorum): 80 to 100% | pest or weed control at 100 ppm (Alternaria solani): 80 to 100% | pest or weed control at 100 ppm [1]: 80 to 100% | pest or weed control at 100 ppm [2, 3]: 80 to 100% | pest or weed control at 100 ppm [2, 4]: 80 to 100%

COc1ccnc(C(=O)N[C@H]2COC[C@H](Cc3ccccc3)[C@@H](OC3CCCC3)[C@H](C)OC2=O)c1OCOC(C)=O [Compound 106]
pest or weed control at 100 ppm (Leptosphaeria nodorum): 80 to 100% | pest or weed control at 100 ppm (Alternaria solani): 0 to 80% | pest or weed control at 100 ppm [1]: 80 to 100% | pest or weed control at 100 ppm [2, 3]: 80 to 100% | pest or weed control at 100 ppm [2, 4]: 80 to 100%

COc1ccnc(C(=O)N[C@H]2COC[C@H](Cc3ccccc3)[C@@H](OC3CCCC3)[C@H](C)OC2=O)c1OC(C)=O [Compound 107]
pest or weed control at 100 ppm (Leptosphaeria nodorum): 80 to 100% | pest or weed control at 100 ppm (Alternaria solani): 0 to 80% | pest or weed control at 100 ppm [1]: 80 to 100% | pest or weed control at 100 ppm [2, 3]: 80 to 100% | pest or weed control at 100 ppm [2, 4]: 80 to 100%

COc1ccnc(C(=O)N[C@H]2COC[C@H](Cc3ccccc3)[C@@H](OC3CCCC3)[C@H](C)OC2=O)c1OCOC(=O)C(C)C [Compound 108]
pest or weed control at 100 ppm (Leptosphaeria nodorum): 80 to 100% | pest or weed control at 100 ppm (Alternaria solani): 80 to 100% | pest or weed control at 100 ppm [1]: 80 to 100% | pest or weed control at 100 ppm [2, 3]: 80 to 100% | pest or weed control at 100 ppm [2, 4]: 0 to 80%
